From patent US20240238242A1, “EGCG buccal tablet and use thereof” (priority 2023, published 2024)
“And” between values parts separate entries of the source, which are not always exact repeats. Equal values may be shown once. Read-outs that look alike come from different tables or passages of the source.

Tested on: Influenza A virus neuraminidase inhibitor-resistant strain (ZX-1109)
Type: cell-based
Conditions: for average inactivation efficiency against virus: ZX1109 virus, three experiments; for residual virus titer of EGCG+virus group (Karber method) / inactivation efficiency against the virus: ZX-1109 virus; for inactivation efficiency against the virus: single experiment

SMILES: O=C(O[C@@H]1Cc2c(O)cc(O)cc2O[C@@H]1c1cc(O)c(O)c(O)c1)c1cc(O)c(O)c(O)c1 [EGCG, Epigallocatechin gallate]
- CPE test (virus replication in the cell wells) (1 mM EGCG + ZX-1109 virus, 1 minute, third experiment, dilution factor 10^6, wells 1-10): − and +
- CPE test (virus replication in the cell wells) (1 mM EGCG + ZX-1109 virus, 1 minute, third experiment, dilution factor 10^7, wells 1-10): −
- CPE test (virus replication in the cell wells) (1 mM EGCG + ZX-1109 virus, 1 minute, third experiment, dilution factor 10^8, wells 1-10): −
- CPE test (virus replication in the cell wells) (1 mM EGCG + ZX-1109 virus, 5 minute, first experiment, dilution factor 10^2, wells 1-10): +
- CPE test (virus replication in the cell wells) (1 mM EGCG + ZX-1109 virus, 5 minute, first experiment, dilution factor 10^3, wells 1-10): +
- CPE test (virus replication in the cell wells) (1 mM EGCG + ZX-1109 virus, 5 minute, first experiment, dilution factor 10^4, wells 1-10): +
- CPE test (virus replication in the cell wells) (1 mM EGCG + ZX-1109 virus, 5 minute, first experiment, dilution factor 10^5, wells 1-10): + and −
- CPE test (virus replication in the cell wells) (1 mM EGCG + ZX-1109 virus, 5 minute, first experiment, dilution factor 10^6, wells 1-10): − and +
- CPE test (virus replication in the cell wells) (1 mM EGCG + ZX-1109 virus, 5 minute, first experiment, dilution factor 10^7, wells 1-10): − and +
- CPE test (virus replication in the cell wells) (1 mM EGCG + ZX-1109 virus, 5 minute, first experiment, dilution factor 10^8, wells 1-10): + and −
- CPE test (virus replication in the cell wells) (1 mM EGCG + ZX-1109 virus, 5 minute, second experiment, dilution factor 10^2, wells 1-10): +
- CPE test (virus replication in the cell wells) (1 mM EGCG + ZX-1109 virus, 5 minute, second experiment, dilution factor 10^3, wells 1-10): +
- CPE test (virus replication in the cell wells) (1 mM EGCG + ZX-1109 virus, 5 minute, second experiment, dilution factor 10^4, wells 1-10): +
- CPE test (virus replication in the cell wells) (1 mM EGCG + ZX-1109 virus, 5 minute, second experiment, dilution factor 10^5, wells 1-10): + and −
- CPE test (virus replication in the cell wells) (1 mM EGCG + ZX-1109 virus, 5 minute, second experiment, dilution factor 10^6, wells 1-10): − and +
- CPE test (virus replication in the cell wells) (1 mM EGCG + ZX-1109 virus, 5 minute, second experiment, dilution factor 10^7, wells 1-10): − and +
- CPE test (virus replication in the cell wells) (1 mM EGCG + ZX-1109 virus, 5 minute, second experiment, dilution factor 10^8, wells 1-10): − and +
- CPE test per cell well (1 mM EGCG + ZX-1109 virus, 5 minute, third experiment, dilution factor 10^2, wells 1-10): +
- CPE test per cell well (1 mM EGCG + ZX-1109 virus, 5 minute, third experiment, dilution factor 10^3, wells 1-10): +
- CPE test per cell well (1 mM EGCG + ZX-1109 virus, 5 minute, third experiment, dilution factor 10^4, wells 1-10): +
- CPE test per cell well (1 mM EGCG + ZX-1109 virus, 5 minute, third experiment, dilution factor 10^5, wells 1-10): − and +
- CPE test per cell well (1 mM EGCG + ZX-1109 virus, 5 minute, third experiment, dilution factor 10^6, wells 1-10): + and −
- CPE test per cell well (1 mM EGCG + ZX-1109 virus, 5 minute, third experiment, dilution factor 10^7, wells 1-10): − and +
- CPE test per cell well (1 mM EGCG + ZX-1109 virus, 5 minute, third experiment, dilution factor 10^8, wells 1-10): + and −
- average inactivation efficiency against virus (1 mM EGCG, 1 minute): 89.97%
- average inactivation efficiency against virus (1 mM EGCG, 5 minutes): 97.59%
- residual virus titer of EGCG+virus group (Karber method) (1 mM EGCG, 1 minute): 10^5 TCID50/50 μL
- inactivation efficiency against the virus (1 mM EGCG, 1 minute): 93.69% and 92.06% and 84.15%
- residual virus titer of EGCG+virus group (Karber method) (1 mM EGCG, 5 minutes): 10^6 TCID50/50 μL
- inactivation efficiency against the virus (1 mM EGCG, 5 minutes): 96.02% and 98.74% and 98.00%
- CPE test per cell well (5 mM EGCG + ZX1109 virus, 1 minute, second experiment, dilution factor 10^3, wells 1-10): +
- CPE test per cell well (5 mM EGCG + ZX1109 virus, 1 minute, second experiment, dilution factor 10^4, wells 1-10): + and −
- CPE test per cell well (5 mM EGCG + ZX1109 virus, 1 minute, second experiment, dilution factor 10^5, wells 1-10): − and +
- CPE test per cell well (5 mM EGCG + ZX1109 virus, 1 minute, second experiment, dilution factor 10^6, wells 1-10): −
- CPE test per cell well (5 mM EGCG + ZX1109 virus, 1 minute, second experiment, dilution factor 10^7, wells 1-10): −
- CPE test per cell well (5 mM EGCG + ZX1109 virus, 1 minute, second experiment, dilution factor 10^8, wells 1-10): −
- CPE test per cell well (5 mM EGCG + ZX-1109 virus, 1 minute, first experiment, dilution factor 10^2, wells 1-10): +
- CPE test per cell well (5 mM EGCG + ZX-1109 virus, 1 minute, first experiment, dilution factor 10^3, wells 1-10): +
- CPE test per cell well (5 mM EGCG + ZX-1109 virus, 1 minute, first experiment, dilution factor 10^4, wells 1-10): + and −
- CPE test per cell well (5 mM EGCG + ZX-1109 virus, 1 minute, first experiment, dilution factor 10^5, wells 1-10): + and −
- CPE test per cell well (5 mM EGCG + ZX-1109 virus, 1 minute, first experiment, dilution factor 10^6, wells 1-10): −
- CPE test per cell well (5 mM EGCG + ZX-1109 virus, 1 minute, first experiment, dilution factor 10^7, wells 1-10): −
- CPE test per cell well (5 mM EGCG + ZX-1109 virus, 1 minute, first experiment, dilution factor 10^8, wells 1-10): −
- CPE test (virus replication in the cell wells) (5 mM EGCG + ZX-1109 virus, 1 minute, third experiment, dilution factor 10^2, wells 1-10): +
- CPE test (virus replication in the cell wells) (5 mM EGCG + ZX-1109 virus, 1 minute, third experiment, dilution factor 10^3, wells 1-10): +
- CPE test (virus replication in the cell wells) (5 mM EGCG + ZX-1109 virus, 1 minute, third experiment, dilution factor 10^4, wells 1-10): + and −
- CPE test (virus replication in the cell wells) (5 mM EGCG + ZX-1109 virus, 1 minute, third experiment, dilution factor 10^5, wells 1-10): −
- CPE test (virus replication in the cell wells) (5 mM EGCG + ZX-1109 virus, 1 minute, third experiment, dilution factor 10^6, wells 1-10): −
- CPE test (virus replication in the cell wells) (5 mM EGCG + ZX-1109 virus, 1 minute, third experiment, dilution factor 10^7, wells 1-10): −
- CPE test (virus replication in the cell wells) (5 mM EGCG + ZX-1109 virus, 1 minute, third experiment, dilution factor 10^8, wells 1-10): −
- CPE test (virus replication in the cell wells) (5 mM EGCG + ZX-1109 virus, 5 minute, first experiment, dilution factor 10^3, wells 1-10): +
- CPE test (virus replication in the cell wells) (5 mM EGCG + ZX-1109 virus, 5 minute, first experiment, dilution factor 10^4, wells 1-10): + and −
- CPE test (virus replication in the cell wells) (5 mM EGCG + ZX-1109 virus, 5 minute, first experiment, dilution factor 10^5, wells 1-10): − and +
- CPE test (virus replication in the cell wells) (5 mM EGCG + ZX-1109 virus, 5 minute, first experiment, dilution factor 10^6, wells 1-10): − and +
- CPE test (virus replication in the cell wells) (5 mM EGCG + ZX-1109 virus, 5 minute, first experiment, dilution factor 10^7, wells 1-10): − and +
- CPE test (virus replication in the cell wells) (5 mM EGCG + ZX-1109 virus, 5 minute, first experiment, dilution factor 10^8, wells 1-10): −
- CPE test (virus replication in the cell wells) (5 mM EGCG + ZX-1109 virus, 5 minute, second experiment, dilution factor 10^3, wells 1-10): +
- CPE test (virus replication in the cell wells) (5 mM EGCG + ZX-1109 virus, 5 minute, second experiment, dilution factor 10^4, wells 1-10): − and +
- CPE test (virus replication in the cell wells) (5 mM EGCG + ZX-1109 virus, 5 minute, second experiment, dilution factor 10^5, wells 1-10): − and +
- CPE test (virus replication in the cell wells) (5 mM EGCG + ZX-1109 virus, 5 minute, second experiment, dilution factor 10^6, wells 1-10): −
- CPE test (virus replication in the cell wells) (5 mM EGCG + ZX-1109 virus, 5 minute, second experiment, dilution factor 10^7, wells 1-10): −
- CPE test (virus replication in the cell wells) (5 mM EGCG + ZX-1109 virus, 5 minute, second experiment, dilution factor 10^8, wells 1-10): −
- CPE test per cell well (5 mM EGCG + ZX-1109 virus, 5 minute, third experiment, dilution factor 10^3, wells 1-10): +
- CPE test per cell well (5 mM EGCG + ZX-1109 virus, 5 minute, third experiment, dilution factor 10^4, wells 1-10): − and +
- CPE test per cell well (5 mM EGCG + ZX-1109 virus, 5 minute, third experiment, dilution factor 10^5, wells 1-10): −
- CPE test per cell well (5 mM EGCG + ZX-1109 virus, 5 minute, third experiment, dilution factor 10^6, wells 1-10): −
- CPE test per cell well (5 mM EGCG + ZX-1109 virus, 5 minute, third experiment, dilution factor 10^7, wells 1-10): −
- CPE test per cell well (5 mM EGCG + ZX-1109 virus, 5 minute, third experiment, dilution factor 10^8, wells 1-10): −
- average inactivation efficiency against virus (5 mM EGCG, 1 minute): 93.73%
- average inactivation efficiency against virus (5 mM EGCG, 5 minutes): 99.86%
- inactivation efficiency against the virus (5 mM EGCG, 1 minute): 90.00% and 93.69% and 97.49%
- inactivation efficiency against the virus (5 mM EGCG, 5 minutes): 99.60% and 99.99%
